Data on 18 compounds can be found in patent US8580794B2 (AbbVie Inc., priority 2009, dated 2013).

The target in the experiment is GST-Bc1-2 (Homo sapiens, UniProt P10415). As to the kind of experiment: Time Resolved-Fluorescence Resonance Energy Transfer (TR-FRET) Bcl-2 binding assay with F-Bak peptide probe. The settings on record: GST-Bcl-2 1 nM, F-Bak probe 100 nM, Tb-anti-GST 1 nM; '<' = below limit of detection; read-out: TR-FRET Bcl-2 Binding Ki. (Time-resolved FRET reads energy transfer from a long-lived donor to a nearby acceptor.)

What is called Ki is a dissociation constant, usually derived from enzyme kinetics or from competition with a known ligand.

Each structure is given as a SMILES string. Some results are limits rather than exact numbers.

Sequence of GST-Bc1-2 (P10415 whole entry): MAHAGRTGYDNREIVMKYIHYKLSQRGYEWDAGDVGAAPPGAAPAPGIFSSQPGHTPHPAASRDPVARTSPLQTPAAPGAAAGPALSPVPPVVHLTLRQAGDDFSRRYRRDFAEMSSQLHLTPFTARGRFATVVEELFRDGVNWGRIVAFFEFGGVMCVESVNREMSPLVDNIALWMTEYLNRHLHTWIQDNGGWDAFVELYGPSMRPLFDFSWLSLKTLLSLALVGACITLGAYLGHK

As to `CN(C)CC(=O)N1CCO[C@@H](CNc2ccc(S(=O)(=O)NC(=O)c3ccc(N4CCN(CC5=C(c6ccc(Cl)cc6)CC(C)(C)CC5)CC4)cc3Oc3cnc4[nH]ccc4c3)cc2[N+](=O)[O-])C1` [Example 259, 4-(4-{[2-(4-chlorophenyl)-4,4-dimethylcyclohex-1-en-1-yl]methyl}piperazin-1-yl)-N-{[4-({[(2S)-4-(N,N-dimethylglycyl)morpholin-2-yl]methyl}amino)-3-nitrophenyl]sulfonyl}-2-(1H-pyrrolo[2,3-b]pyridin-5-yloxy)benzamide], the Ki is less than 0.01 nM. As for `CN(C)CC(=O)N1CCC(COc2ncc(S(=O)(=O)NC(=O)c3ccc(N4CCN(CC5=C(c6ccc(Cl)cc6)CC(C)(C)CC5)CC4)cc3Oc3cnc4[nH]ccc4c3)cc2Cl)CC1` [Example 260, N-[(5-chloro-6-{[1-(N,N-dimethylglycyl)piperidin-4-yl]methoxy}pyridin-3-yl)sulfonyl]-4-(4-{[2-(4-chlorophenyl)-4,4-dimethylcyclohex-1-en-1-yl]methyl}piperazin-1-yl)-2-(1H-pyrrolo[2,3-b]pyridin-5-yloxy)benzamide], the figure is 0.016 nM; as for `CC1(C)CCC(CN2CCN(c3ccc(C(=O)NS(=O)(=O)c4cnc(O[C@@H]5CCN(CC(F)F)C5)c(Cl)c4)c(Oc4cnc5[nH]ccc5c4)c3)CC2)=C(c2ccc(Cl)cc2)C1` [Example 261, N-[(5-chloro-6-{[(3R)-1-(2,2-difluoroethyl)pyrrolidin-3-yl]oxy}pyridin-3-yl)sulfonyl]-4-(4-{[2-(4-chlorophenyl)-4,4-dimethylcyclohex-1-en-1-yl]methyl}piperazin-1-yl)-2-(1H-pyrrolo[2,3-b]pyridin-5-yloxy)benzamide], 0.134 nM; as for `CC1(C)CCC(CN2CCN(c3ccc(C(=O)NS(=O)(=O)c4ccc(N[C@@H]5CCN(CC#N)C5)c([N+](=O)[O-])c4)c(Oc4cnc5[nH]ccc5c4)c3)CC2)=C(c2ccc(Cl)cc2)C1` [Example 262, 4-(4-{[2-(4-chlorophenyl)-4,4-dimethylcyclohex-1-en-1-yl]methyl}piperazin-1-yl)-N-[(4-{[(3R)-1-(cyanomethyl)pyrrolidin-3-yl]amino}-3-nitrophenyl)sulfonyl]-2-(1H-pyrrolo[2,3-b]pyridin-5-yloxy)benzamide], less than 0.01 nM. On to `COC1(Cc2ccccc2-c2ccc(Cl)cc2)CCN(c2ccc(C(=O)NS(=O)(=O)c3cnc(OCC4(F)CCOCC4)c(Cl)c3)c(Oc3cnc4[nH]ccc4c3)c2)CC1` [Example 263, 4-{4-[(4′-chlorobiphenyl-2-yl)methyl]-4-methoxypiperidin-1-yl}-N-({5-chloro-6-[(4-fluorotetrahydro-2H-pyran-4-yl)methoxy]pyridin-3-yl}sulfonyl)-2-(1H-pyrrolo[2,3-b]pyridin-5-yloxy)benzamide], for which the Ki worked out at 0.156 nM. The figure for `COC1(Cc2ccccc2-c2ccc(Cl)cc2)CCN(c2ccc(C(=O)NS(=O)(=O)c3ccc(NCC4CCOCC4)c([N+](=O)[O-])c3)c(Oc3cnc4[nH]ccc4c3)c2)CC1` [Example 264, 4-{4-[(4′-chlorobiphenyl-2-yl)methyl]-4-methoxypiperidin-1-yl}-N-({3-nitro-4-[(tetrahydro-2H-pyran-4-ylmethyl)amino]phenyl}sulfonyl)-2-(1H-pyrrolo[2,3-b]pyridin-5-yloxy)benzamide] is 0.036 nM; for `O=C(NS(=O)(=O)c1ccc(NCC2CCOCC2)c([N+](=O)[O-])c1)c1ccc(N2CCN(CC3=C(c4ccc(Cl)cc4)CCC4(CCN(C(CF)CF)CC4)C3)CC2)cc1Oc1cnc2[nH]ccc2c1` [Example 265, 4-(4-{[9-(4-chlorophenyl)-3-(1,3-difluoropropan-2-yl)-3-azaspiro[5.5]undec-8-en-8-yl]methyl}piperazin-1-yl)-N-({3-nitro-4-[(tetrahydro-2H-pyran-4-ylmethyl)amino]phenyl}sulfonyl)-2-(1H-pyrrolo[2,3-b]pyridin-5-yloxy)benzamide] it is less than 0.01 nM; for `CC(C)N1CCC2(CCC(c3ccc(Cl)cc3)=C(CN3CCN(c4ccc(C(=O)NS(=O)(=O)c5ccc(NCC6CCOCC6)c([N+](=O)[O-])c5)c(Oc5cnc6[nH]ccc6c5)c4)CC3)C2)CC1` [Example 266, 4-(4-{[9-(4-chlorophenyl)-3-isopropyl-3-azaspiro[5.5]undec-8-en-8-yl]methyl}piperazin-1-yl)-N-({3-nitro-4-[(tetrahydro-2H-pyran-4-ylmethyl)amino]phenyl}sulfonyl)-2-(1H-pyrrolo[2,3-b]pyridin-5-yloxy)benzamide] it is less than 0.01 nM. With `CC(C)N1CCC2(CCC(c3ccc(Cl)cc3)=C(CN3CCN(c4ccc(C(=O)NS(=O)(=O)c5cnc(OCC6CCOCC6)c(Cl)c5)c(Oc5cnc6[nH]ccc6c5)c4)CC3)C2)CC1` [Example 268, 4-(4-{[9-(4-chlorophenyl)-3-isopropyl-3-azaspiro[5.5]undec-8-en-8-yl]methyl}piperazin-1-yl)-N-{[5-chloro-6-(tetrahydro-2H-pyran-4-ylmethoxy)pyridin-3-yl]sulfonyl}-2-(1H-pyrrolo[2,3-b]pyridin-5-yloxy)benzamide], the Ki is less than 0.01 nM. As for `CN1CCC(F)(COc2ncc(S(=O)(=O)NC(=O)c3ccc(N4CCN(CC5=C(c6ccc(Cl)cc6)CC(C)(C)CC5)CC4)cc3Oc3cnc4[nH]ccc4c3)cc2Cl)CC1` [Example 269, N-({5-chloro-6-[(4-fluoro-1-methylpiperidin-4-yl)methoxy]pyridin-3-yl}sulfonyl)-4-(4-{[2-(4-chlorophenyl)-4,4-dimethylcyclohex-1-en-1-yl]methyl}piperazin-1-yl)-2-(1H-pyrrolo[2,3-b]pyridin-5-yloxy)benzamide], the figure is 0.016 nM; as for `CN(C)CC(=O)N1CCC(F)(COc2ncc(S(=O)(=O)NC(=O)c3ccc(N4CCN(CC5=C(c6ccc(Cl)cc6)CC(C)(C)CC5)CC4)cc3Oc3cnc4[nH]ccc4c3)cc2Cl)CC1` [Example 270, N-[(5-chloro-6-{[1-(N,N-dimethylglycyl)-4-fluoropiperidin-4-yl]methoxy}pyridin-3-yl)sulfonyl]-4-(4-{[2-(4-chlorophenyl)-4,4-dimethylcyclohex-1-en-1-yl]methyl}piperazin-1-yl)-2-(1H-pyrrolo[2,3-b]pyridin-5-yloxy)benzamide], less than 0.01 nM.

Regarding `O=C(NS(=O)(=O)c1ccc(NCC2CCOCC2)c([N+](=O)[O-])c1)c1ccc(N2CCC(F)(Cc3ccccc3-c3ccc(Cl)cc3)CC2)cc1Oc1cnc2[nH]ccc2c1` [Example 271, 4-{4-[(4′-chlorobiphenyl-2-yl)methyl]-4-fluoropiperidin-1-yl}-N-({3-nitro-4-[(tetrahydro-2H-pyran-4-ylmethyl)amino]phenyl}sulfonyl)-2-(1H-pyrrolo[2,3-b]pyridin-5-yloxy)benzamide], the Ki was 0.039 nM. As for `O=C(NS(=O)(=O)c1cnc(OCC2(F)CCOCC2)c(Cl)c1)c1ccc(N2CCC(F)(Cc3ccccc3-c3ccc(Cl)cc3)CC2)cc1Oc1cnc2[nH]ccc2c1` [Example 272, 4-{4-[(4′-chlorobiphenyl-2-yl)methyl]-4-fluoropiperidin-1-yl}-N-({5-chloro-6-[(4-fluorotetrahydro-2H-pyran-4-yl)methoxy]pyridin-3-yl}sulfonyl)-2-(1H-pyrrolo[2,3-b]pyridin-5-yloxy)benzamide], the figure is 0.031 nM; as for `CC(C)N1CCC2(CCC(c3ccc(Cl)cc3)=C(CN3CCN(c4ccc(C(=O)NS(=O)(=O)c5ccc(NCC6CCOCC6)c(C(F)(F)F)c5)c(Oc5cnc6[nH]ccc6c5)c4)CC3)C2)CC1` [Example 273, 4-(4-{[9-(4-chlorophenyl)-3-isopropyl-3-azaspiro[5.5]undec-8-en-8-yl]methyl}piperazin-1-yl)-2-(1H-pyrrolo[2,3-b]pyridin-5-yloxy)-N-({4-[(tetrahydro-2H-pyran-4-ylmethyl)amino]-3-(trifluoromethyl)phenyl}sulfonyl)benzamide], 0.035 nM; as for `CC1(C)CCC(CN2CCN(c3ccc(C(=O)NS(=O)(=O)c4cnc(O[C@@H]5CCN(C(CF)CF)C5)c(Cl)c4)c(Oc4cnc5[nH]ccc5c4)c3)CC2)=C(c2ccc(Cl)cc2)C1` [Example 274, N-[(5-chloro-6-{[(3R)-1-(1,3-difluoropropan-2-yl)pyrrolidin-3-yl]oxy}pyridin-3-yl)sulfonyl]-4-(4-{[2-(4-chlorophenyl)-4,4-dimethylcyclohex-1-en-1-yl]methyl}piperazin-1-yl)-2-(1H-pyrrolo[2,3-b]pyridin-5-yloxy)benzamide], 0.04 nM. As for `CC1(C)CCC(CN2CCN(c3ccc(C(=O)NS(=O)(=O)c4ccc(OCCOC5CCOC5)c([N+](=O)[O-])c4)c(Oc4cnc5[nH]ccc5c4)c3)CC2)=C(c2ccc(Cl)cc2)C1` (stereo not drawn) [Example 275, 4-(4-{[2-(4-chlorophenyl)-4,4-dimethylcyclohex-1-en-1-yl]methyl}piperazin-1-yl)-N-({3-nitro-4-[2-(tetrahydrofuran-3-yloxy)ethoxy]phenyl}sulfonyl)-2-(1H-pyrrolo[2,3-b]pyridin-5-yloxy)benzamide], the figure is less than 0.01 nM; as for `CC1(C)CCC(CN2CCN(c3ccc(C(=O)NS(=O)(=O)c4ccc(NC[C@H]5CC[C@H](C#N)CC5)c([N+](=O)[O-])c4)c(Oc4cnc5[nH]ccc5c4)c3)CC2)=C(c2ccc(Cl)cc2)C1` [Example 276, 4-(4-{[2-(4-chlorophenyl)-4,4-dimethylcyclohex-1-en-1-yl]methyl}piperazin-1-yl)-N-[(4-{[(trans-4-cyanocyclohexyl)methyl]amino}-3-nitrophenyl)sulfonyl]-2-(1H-pyrrolo[2,3-b]pyridin-5-yloxy)benzamide], less than 0.01 nM. The figure for `CC1(C)CCC(CN2CCN(c3ccc(C(=O)NS(=O)(=O)c4cnc(OCC5(F)CCN(C6COC6)CC5)c(Cl)c4)c(Oc4cnc5[nH]ccc5c4)c3)CC2)=C(c2ccc(Cl)cc2)C1` [Example 277, N-[(5-chloro-6-{[4-fluoro-1-(oxetan-3-yl)piperidin-4-yl]methoxy}pyridin-3-yl)sulfonyl]-4-(4-{[2-(4-chlorophenyl)-4,4-dimethylcyclohex-1-en-1-yl]methyl}piperazin-1-yl)-2-(1H-pyrrolo[2,3-b]pyridin-5-yloxy)benzamide] is less than 0.01 nM.
